Measured values from patent US20060263802A1 (priority 2003, published 2006).

Key:
Type in all cases: binding
[1] = system: human monoclonal antibody CRJA
[2] = system: human monoclonal antibody CRJA; remark: listed apart in the source
[3] = system: human monoclonal antibody CR57
[4] = system: human monoclonal antibody CRJB
[5] = system: human monoclonal antibody CRJB; remark: listed apart in the source
[6] = system: human monoclonal antibody CR57; remark: listed apart in the source

Sequence | Binding of CRJA to linear peptide (PEPSCAN-ELISA signal) [1] | Binding of CRJA (10 μg/ml) to looped/cyclic peptide (PEPSCAN-ELISA) [2] | Binding of CR57 to linear peptide (PEPSCAN-ELISA signal) [3] | Binding of CRJB (10 μg/ml) to looped/cyclic peptide (PEPSCAN-ELISA) [4] | Binding of CRJB to linear peptide (PEPSCAN-ELISA signal) [5] | Binding of CR57 (10 μg/ml) to looped/cyclic peptide (PEPSCAN-ELISA) [6] | Binding of CRJA (10 μg/ml) to looped/cyclic peptide (PEPSCAN-ELISA signal) [2] | Binding of CRJB (10 μg/ml) to looped/cyclic peptide (PEPSCAN-ELISA signal) [4] | Binding of CR57 (10 μg/ml) to looped/cyclic peptide (PEPSCAN-ELISA signal) [6] | Binding of human monoclonal antibody CRJA to linear peptide (PEPSCAN-ELISA signal) [1] | Binding of CRJA to looped/cyclic peptide (PEPSCAN-ELISA signal) [2] | Binding of human monoclonal antibody CR57 to linear peptide (PEPSCAN-ELISA signal) [3] | Binding of CRJB to looped/cyclic peptide (PEPSCAN-ELISA signal) [4] | Binding of human monoclonal antibody CRJB to linear peptide (PEPSCAN-ELISA signal) [5] | Binding of CR57 to looped/cyclic peptide (PEPSCAN-ELISA signal) [6]
RLMDGTWVAMQTSNE | 99 | 82 | 100 | 89 | 113 | 96 | – | – | – | – | – | – | – | – | –
LYKSLKGACKLKLCG | 94 | 107 | 93 | 79 | 136 | 91 | – | – | – | – | – | – | – | – | –
IFNKTLMEADAHYKS | 87 | 98 | 100 | 86 | 118 | 107 | – | – | – | – | – | – | – | – | –
VVEELVRKREECLDA | 90 | 59 | 62 | 5 | 108 | 30 | – | – | – | – | – | – | – | – | –
WSPIDIHHLSCPNNL | 83 | – | 80 | – | 106 | – | 151 | 92 | 89 | – | – | – | – | – | –
SKGCLRVGGRCHPHV | 87 | 71 | 72 | 87 | 121 | 79 | – | – | – | – | – | – | – | – | –
KDGDEAEDFVEVHLP | – | – | – | – | – | – | – | – | – | 62 | 42 | 72 | 71 | 93 | 71
LGPDGNVLIPEMQSS | 99 | 104 | 100 | 94 | 134 | 150 | – | – | – | – | – | – | – | – | –
AENYTNFVGYVTTTF | 74 | – | 66 | – | 106 | – | 46 | 68 | 58 | – | – | – | – | – | –
FGKAYTIFNKTLMEA | 85 | 96 | 90 | 78 | 151 | 114 | – | – | – | – | – | – | – | – | –
